This is an account of results in PubChem BioAssay (NCI).

Where “and” joins values, the source holds several entries; their conditions need not be identical. Equal entries are not always repeated.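 Dose response: 5 concentrations. Exposure: 48 h. Format: 96-well plates. Endpoint: linear interpolation; highest concentration if not reached. GI50: concentration for 50% inhibition of growth. The concentration for full growth arrest is given as TGI.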

Among the test systems are A498 renal; COLO 205 colon; HCT-116 colon; HS 578T breast; K-562 leukemia; KM12 colon; MCF7 breast; NCI-H226 lung; RXF 393 renal; SW-620 colon.
Assay in all cases: NCI tumour cell line growth inhibition, 48 h

As for `CCOc1ccccc1/C=N\N=C(N/N=C/c1ccccc1OCC)N/N=C/c1ccccc1OCC`, the GI50 was 2170 nM with A498 renal; 1430 nM with COLO 205 colon; 763 nM in the assay with HCT-116 colon; 2220 nM in the assay on HS 578T breast; 3760 nM with K-562 leukemia; 1720 nM in the assay on KM12 colon. Further, the GI50 with MCF7 breast was 715 nM; in the assay on NCI-H226 lung it was 2740 nM; with RXF 393 renal it was 2670 nM; in the assay on SW-620 colon it was 3240 nM. In addition, the TGI was 8450 nM with A498 renal; 2980 nM with COLO 205 colon; above 100000 nM in the assay with HCT-116 colon; 8390 nM in the assay on HS 578T breast; above 100000 nM with K-562 leukemia; above 100000 nM in the assay on KM12 colon. Besides, the TGI in the assay with MCF7 breast, in the assay with NCI-H226 lung, in the assay on RXF 393 renal and in the assay with SW-620 colon was above 100000 nM throughout.

Consider `CCOC(=O)c1c(NN2CCN(CC(F)(F)F)CC2)oc(/C=C2\C=Nc3ncccc32)c1O`, for which the GI50 in the assay with A498 renal was 3620 nM; in the assay with COLO 205 colon, 760 nM; in the assay with HCT-116 colon, 2090 nM; in the assay on HS 578T breast it was 913 nM; with K-562 leukemia, 2140 nM; in the assay on KM12 colon, 3450 nM. In addition, the GI50 was 6370 nM in the assay with MCF7 breast, 1730 nM with NCI-H226 lung, 1200 nM in the assay on RXF 393 renal and 808 nM with SW-620 colon. Besides, the TGI in the assay on A498 renal is 9620 nM; in the assay with COLO 205 colon it was 11100 nM; in the assay on HCT-116 colon, 17700 nM; in the assay with HS 578T breast, 6720 nM; in the assay on K-562 leukemia it was above 100000 nM; in the assay with KM12 colon, 15300 nM. The TGI turned out to be 30500 nM in the assay with MCF7 breast, 27000 nM in the assay with NCI-H226 lung, 4190 nM in the assay with RXF 393 renal and 22900 nM in the assay with SW-620 colon.

Regarding `COC(=O)CCc1n(Cc2ccc3ccccc3c2)c2ccccc2[n+]1Cc1ccc2ccccc2c1`, the GI50 with A498 renal was 1530 nM; in the assay with COLO 205 colon, 614 nM; in the assay with HS 578T breast, 1430 nM; in the assay on K-562 leukemia, 379 nM; with KM12 colon, 685 nM; in the assay with MCF7 breast, 795 nM. Also, the values for the GI50 in the assay with RXF 393 renal and with SW-620 colon were 874 nM and 1270 nM, respectively. The TGI with A498 renal came to 3450 nM; with COLO 205 colon it was 2210 nM; in the assay on HS 578T breast, 3470 nM; with K-562 leukemia it was 1630 nM; in the assay with KM12 colon it was 2120 nM; with MCF7 breast it was 2340 nM. Also, the values for the TGI with RXF 393 renal and with SW-620 colon were 2230 nM and 2850 nM, respectively.

Turning to `CCCCCCOC(=O)CC1=C(C)/C(=C/c2[nH]c(-c3ccc[nH]3)cc2OC)N=C1C`, the GI50 is 321 nM in the assay with A498 renal; 87 nM in the assay with COLO 205 colon; 31.1 nM in the assay with HCT-116 colon; 133 nM in the assay on HS 578T breast; 53.5 nM in the assay with KM12 colon; 96.1 nM in the assay with MCF7 breast. The GI50 is 137 nM with NCI-H226 lung, 163 nM in the assay on RXF 393 renal and 38.4 nM in the assay with SW-620 colon. Further, the TGI in the assay with A498 renal worked out at 1330 nM; with COLO 205 colon, 1090 nM; with HCT-116 colon, 1050 nM; in the assay with HS 578T breast it was 1170 nM; in the assay with KM12 colon it was 1400 nM; with MCF7 breast, 1380 nM. In addition, the results for the TGI with NCI-H226 lung, in the assay on RXF 393 renal and in the assay with SW-620 colon were 1060 nM, 1070 nM and 1350 nM, respectively.

With `CC(=O)O[C@@H]1c2c(c3c(=O)c4cccc(O)c4c(=O)c=3c2=[N+]=[N-])[C@H](OC(C)=O)[C@@H](OC(C)=O)[C@]1(C)O`, the GI50 is 1340 nM in the assay with A498 renal; 605 nM and 160 nM in the assay with COLO 205 colon; 271 nM with HCT-116 colon; 575 nM in the assay on HS 578T breast; 90.9 nM with K-562 leukemia; 270 nM with KM12 colon. Further, the GI50 in the assay on MCF7 breast was 142 nM; with NCI-H226 lung, 617 nM; in the assay on RXF 393 renal it was 147 nM; with SW-620 colon, 216 nM. The TGI with A498 renal is 1820 nM and 3020 nM; with COLO 205 colon, 1290 nM and 296 nM; with HCT-116 colon, 617 nM and 890 nM; in the assay on HS 578T breast it was 881 nM and 3540 nM; in the assay on K-562 leukemia, 3100 nM and 444 nM; in the assay on KM12 colon, 914 nM and 900 nM. Also, the TGI in the assay on MCF7 breast was 1110 nM and 291 nM; with NCI-H226 lung it was 1450 nM and 2180 nM; with RXF 393 renal, 1280 nM and 296 nM; in the assay on SW-620 colon, 1220 nM.

As for `CCNCC(=O)Nc1ccc2c(c1)C(=O)c1ccc(NC(=O)CNCC)cc1C2=O`, the TGI is 6460 nM in the assay with A498 renal; 3690 nM in the assay with COLO 205 colon; 7520 nM in the assay on HCT-116 colon; 22100 nM in the assay on HS 578T breast; 4910 nM in the assay on K-562 leukemia; above 100000 nM with KM12 colon. Besides, the TGI with MCF7 breast was 5600 nM; in the assay on NCI-H226 lung, 20000 nM; with RXF 393 renal, 13300 nM; with SW-620 colon it was 12800 nM.

As to `NC(=O)c1cn(C2CC(O)C(CO)O2)c2ncnc(N)c12` (stereo not drawn), the GI50 with A498 renal is 1970 nM; in the assay with COLO 205 colon, 5010 nM; in the assay with HCT-116 colon, 4100 nM; in the assay with HS 578T breast, 2270 nM; with K-562 leukemia it was 4210 nM; in the assay on KM12 colon, 5180 nM. The GI50 was 376 nM in the assay with MCF7 breast, 3190 nM with NCI-H226 lung, 2080 nM in the assay with RXF 393 renal and 2580 nM in the assay with SW-620 colon. In addition, the TGI in the assay with A498 renal was 7930 nM; with COLO 205 colon, 24000 nM; in the assay on HCT-116 colon, above 100000 nM; in the assay on HS 578T breast, 17300 nM; in the assay with K-562 leukemia, above 100000 nM; in the assay on KM12 colon, 28400 nM. Also, the TGI with MCF7 breast turned out to be 13900 nM; in the assay on NCI-H226 lung, 17400 nM; in the assay on RXF 393 renal, 13900 nM; with SW-620 colon, 20600 nM.

`CC(=O)OCC1OC(SC2=N/C(=C\c3ccc(Br)s3)C(=O)N2c2ccccc2)C(OC(C)=O)C(OC(C)=O)C1OC(C)=O` (stereo not drawn): the TGI in the assay with A498 renal was above 100000 nM; in the assay on COLO 205 colon it was above 100000 nM; with HCT-116 colon, above 100000 nM; in the assay with HS 578T breast, 78400 nM and > 100000 nM; with K-562 leukemia it was above 100000 nM; with KM12 colon, above 100000 nM. Also, the TGI in the assay on MCF7 breast was above 100000 nM; in the assay with NCI-H226 lung, above 100000 nM; in the assay on RXF 393 renal it was 57200 nM and > 100000 nM; in the assay with SW-620 colon, above 100000 nM. The GI50 with HCT-116 colon is 25500 nM and 61200 nM; with K-562 leukemia it was > 100000 nM and 18900 nM; in the assay with KM12 colon, > 100000 nM and 44300 nM; with NCI-H226 lung it was 46900 nM and 15700 nM.
